In brackets after ≈: the same amount, converted by molar mass.
Assays:
Staphylococcus aureus [1] = assay: Antibacterial activity against Staphylococcus aureus ATCC 29213 by resazurin dye based microdilution method; type: functional
Escherichia coli = assay: Antibacterial activity against Escherichia coli by resazurin dye based microdilution method; type: functional
Klebsiella pneumoniae = assay: Antibacterial activity against Klebsiella pneumoniae by resazurin dye based microdilution method; type: functional
Staphylococcus aureus [2] = assay: Antibacterial activity against Methicillin resistant Staphylococcus aureus by resazurin dye based microdilution method; type: functional
A549 = assay: Cytotoxicity against human A549 cells by CCK8 assay; type: functional, cell-based
Caco-2 = assay: Cytotoxicity against human Caco2 cells by CCK8 assay; type: functional, cell-based
PC-3M = assay: Cytotoxicity against human PC3M cells after 72 hrs by MTT assay; type: functional, cell-based

SMILES	MIC (Staphylococcus aureus [1]) [µg/mL]	MIC (Escherichia coli) [µg/mL]	MIC (Klebsiella pneumoniae) [µg/mL]	MIC (Staphylococcus aureus [2]) [µg/mL]	IC50 (A549) [nM]	IC50 (Caco-2) [nM]	IC50 (PC-3M) [nM]
CC(=O)NC[C@H]1CN(c2ccc(N3CCOCC3)c(F)c2)C(=O)O1 [LINEZOLID]	1 (≈ 2.96 µM)	> 64	> 64	1 (≈ 2.96 µM)			
CN(C=O)C1=C2C(=CSS2(=O)=O)NC1=O	8 (≈ 32.5 µM)	32 (≈ 130 µM)	64 (≈ 260 µM)	8 (≈ 32.5 µM)	> 64000	> 64000	
O=CNc1c2sscc-2[nH]c1=O	4 (≈ 20 µM)	1 (≈ 4.99 µM)	1 (≈ 4.99 µM)	2 (≈ 9.99 µM)			
CN(C=O)c1c2sscc-2[nH]c1=O	0.5 (≈ 2.33 µM)	0.5 (≈ 2.33 µM)	0.5 (≈ 2.33 µM)	0.5 (≈ 2.33 µM)	1340	570	1700
CN(C=O)C1=C2SCSC=C2NC1=O	> 64	> 64	> 64	> 64	> 64000	> 64000	

Source: ChEMBL document CHEMBL4602683, “The Isolation of Pyrroloformamide Congeners and Characterization of Their Biosynthetic Gene Cluster” (J Nat Prod, 2020)
